Measurements taken from patent US11993599B2, “Therapeutic compounds” (Genentech, Inc., priority 2021, dated 2024).
One block for each molecule: values may come before it.

What was measured:
[1] = target: T1, BRG1 (Homo sapiens, UniProt P51532); experiment: Immunofluorescence assay for BRG1 degradation in SW1573 cells; format: cell-based; settings: 20 hours incubation; for DC50: immunofluorescence mean nuclear signal, read-out: BRG1 IF Degradation IC50; for Dmax: SW1573, 20 h, normalized to a known degrader control, read-out: BRG1 IF Degradation Sinf (%)
T1 construct: either BRM primary antibody (Cell signaling Cat #11966) or BRG primary antibody (Abcam, ab 110641); endogenous in cells; host or cells: SW1573
Method in brief: (§1)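 Imaging-based readout in SW1573: 20 h dosing, formaldehyde fixation, antibody staining for either remodeler, nuclear intensity per cell quantified. Values normalized to control degrader; floating-maximum fit.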

[2] = target: BRM (Homo sapiens, UniProt P51531); experiment: Immunofluorescence assay for BRM degradation in SW1573 cells; format: cell-based; design: treated overnight at 4° C. with either BRM primary antibody (Cell signaling Cat #11966) or BRG primary antibody; endogenous in cells; host or cells: SW1573; settings: 20 hours incubation; for DC50: immunofluorescence mean nuclear signal, read-out: BRM IF Degradation IC50; for BRM IF Degradation Sinf (%): normalized to a known degrader control
Method in brief: as §1

Sequence of BRM (P51531 whole entry): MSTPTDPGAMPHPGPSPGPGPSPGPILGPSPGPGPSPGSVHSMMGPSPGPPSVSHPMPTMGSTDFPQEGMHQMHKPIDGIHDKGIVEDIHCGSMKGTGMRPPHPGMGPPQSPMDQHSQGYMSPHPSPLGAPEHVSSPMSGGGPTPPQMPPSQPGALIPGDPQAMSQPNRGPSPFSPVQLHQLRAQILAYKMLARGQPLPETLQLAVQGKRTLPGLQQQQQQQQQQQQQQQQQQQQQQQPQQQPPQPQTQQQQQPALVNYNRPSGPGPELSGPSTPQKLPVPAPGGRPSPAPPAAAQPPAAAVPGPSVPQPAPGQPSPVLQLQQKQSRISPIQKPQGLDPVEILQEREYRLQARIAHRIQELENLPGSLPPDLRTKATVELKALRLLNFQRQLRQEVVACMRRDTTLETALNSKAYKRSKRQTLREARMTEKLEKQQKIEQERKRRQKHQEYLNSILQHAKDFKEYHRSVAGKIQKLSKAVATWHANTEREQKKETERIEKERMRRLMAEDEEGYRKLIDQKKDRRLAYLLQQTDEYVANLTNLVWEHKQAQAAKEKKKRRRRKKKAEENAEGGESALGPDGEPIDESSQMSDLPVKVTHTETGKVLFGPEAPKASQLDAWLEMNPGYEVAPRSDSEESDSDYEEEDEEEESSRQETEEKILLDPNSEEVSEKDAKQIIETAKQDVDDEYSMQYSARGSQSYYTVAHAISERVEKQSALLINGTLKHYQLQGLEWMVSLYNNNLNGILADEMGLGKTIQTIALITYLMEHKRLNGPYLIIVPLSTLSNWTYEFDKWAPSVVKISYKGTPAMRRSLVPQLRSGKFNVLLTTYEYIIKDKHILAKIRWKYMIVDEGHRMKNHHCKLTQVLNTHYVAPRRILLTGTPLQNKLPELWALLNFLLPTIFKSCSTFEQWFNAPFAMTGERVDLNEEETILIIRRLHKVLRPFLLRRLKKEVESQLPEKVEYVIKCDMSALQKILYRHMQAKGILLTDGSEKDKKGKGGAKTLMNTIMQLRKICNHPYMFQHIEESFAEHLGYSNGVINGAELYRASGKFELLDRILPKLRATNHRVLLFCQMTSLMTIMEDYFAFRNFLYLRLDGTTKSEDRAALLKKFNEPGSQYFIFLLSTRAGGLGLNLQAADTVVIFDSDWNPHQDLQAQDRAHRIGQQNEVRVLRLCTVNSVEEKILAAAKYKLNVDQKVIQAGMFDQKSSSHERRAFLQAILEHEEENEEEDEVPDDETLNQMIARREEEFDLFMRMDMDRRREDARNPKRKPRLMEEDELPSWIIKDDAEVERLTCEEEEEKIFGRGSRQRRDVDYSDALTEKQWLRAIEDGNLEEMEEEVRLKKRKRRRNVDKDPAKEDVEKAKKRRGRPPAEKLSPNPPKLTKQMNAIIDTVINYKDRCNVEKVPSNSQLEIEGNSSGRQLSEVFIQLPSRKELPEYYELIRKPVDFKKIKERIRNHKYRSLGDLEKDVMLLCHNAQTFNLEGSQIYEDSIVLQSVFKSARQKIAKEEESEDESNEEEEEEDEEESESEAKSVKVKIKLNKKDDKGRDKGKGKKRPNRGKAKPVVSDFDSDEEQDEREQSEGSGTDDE
T1 sequence (P51532 whole entry): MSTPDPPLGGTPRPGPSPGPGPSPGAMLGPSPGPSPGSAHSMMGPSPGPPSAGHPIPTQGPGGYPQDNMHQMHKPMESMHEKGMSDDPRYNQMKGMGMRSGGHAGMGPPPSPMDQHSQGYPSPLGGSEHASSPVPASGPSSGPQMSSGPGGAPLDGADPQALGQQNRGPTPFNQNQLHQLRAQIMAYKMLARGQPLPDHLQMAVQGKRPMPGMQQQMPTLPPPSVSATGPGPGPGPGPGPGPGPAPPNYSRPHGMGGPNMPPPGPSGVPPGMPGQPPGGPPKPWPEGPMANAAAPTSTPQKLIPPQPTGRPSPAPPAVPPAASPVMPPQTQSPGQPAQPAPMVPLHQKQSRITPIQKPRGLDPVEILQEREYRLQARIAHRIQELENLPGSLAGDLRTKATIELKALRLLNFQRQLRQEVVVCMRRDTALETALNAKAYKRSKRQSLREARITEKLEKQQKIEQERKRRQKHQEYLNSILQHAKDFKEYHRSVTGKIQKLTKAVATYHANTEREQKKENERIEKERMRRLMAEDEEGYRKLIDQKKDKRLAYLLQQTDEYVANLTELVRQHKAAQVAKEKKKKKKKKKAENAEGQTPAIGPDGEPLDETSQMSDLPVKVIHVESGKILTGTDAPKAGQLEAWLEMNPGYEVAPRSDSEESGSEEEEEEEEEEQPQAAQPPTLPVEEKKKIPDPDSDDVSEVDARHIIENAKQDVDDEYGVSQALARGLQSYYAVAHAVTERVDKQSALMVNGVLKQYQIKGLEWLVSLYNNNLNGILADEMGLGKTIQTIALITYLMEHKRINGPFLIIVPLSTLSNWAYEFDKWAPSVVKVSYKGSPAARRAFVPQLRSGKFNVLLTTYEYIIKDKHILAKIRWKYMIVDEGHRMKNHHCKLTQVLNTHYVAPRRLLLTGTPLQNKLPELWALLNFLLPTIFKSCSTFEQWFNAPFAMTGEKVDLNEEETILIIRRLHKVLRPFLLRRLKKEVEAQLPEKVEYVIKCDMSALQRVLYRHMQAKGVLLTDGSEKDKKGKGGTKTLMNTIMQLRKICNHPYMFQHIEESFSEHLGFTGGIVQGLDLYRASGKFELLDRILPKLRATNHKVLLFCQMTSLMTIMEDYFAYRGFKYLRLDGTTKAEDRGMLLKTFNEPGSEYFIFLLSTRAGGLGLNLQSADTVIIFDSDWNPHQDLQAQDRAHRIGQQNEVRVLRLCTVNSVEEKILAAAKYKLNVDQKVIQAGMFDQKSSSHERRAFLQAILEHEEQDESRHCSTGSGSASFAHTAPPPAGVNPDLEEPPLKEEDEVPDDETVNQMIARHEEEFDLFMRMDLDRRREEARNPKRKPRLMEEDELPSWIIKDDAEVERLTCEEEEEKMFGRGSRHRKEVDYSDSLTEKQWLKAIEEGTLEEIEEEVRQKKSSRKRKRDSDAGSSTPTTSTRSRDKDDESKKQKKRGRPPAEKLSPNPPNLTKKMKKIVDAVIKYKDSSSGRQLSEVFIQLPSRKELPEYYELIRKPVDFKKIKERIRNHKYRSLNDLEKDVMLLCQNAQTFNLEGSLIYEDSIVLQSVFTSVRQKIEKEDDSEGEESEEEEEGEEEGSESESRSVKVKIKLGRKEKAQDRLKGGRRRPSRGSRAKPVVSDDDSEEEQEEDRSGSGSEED

SMILES: Nc1nnc(-c2ccccc2O)cc1N1CC2CCC(C1)N2c1ccnc(C#CCN2CC3(C2)CC3(F)F)c1 [Compound 151, 2-[6-amino-5-[8-[2-[3-(2,2-difluoro-5-azaspiro[2.3]hexan-5-yl)prop-1-ynyl]-4-pyridyl]-3,8-diazabicyclo[3.2.1]octan-3-yl]pyridazin-3-yl]phenol]
- DC50 [1]: < 10 nM
- Dmax [1]: 0 to 30%
- DC50 [2]: < 10 nM
- BRM IF Degradation Sinf (%) [2]: E (E indicates −30%-−70%)

SMILES: Nc1nnc(-c2ccccc2O)cc1N1CC2CCC(C1)N2c1ccnc(C#CCN2CC3(CCCOC3)C2)c1 [Compound 175, 2-[6-amino-5-[8-[2-[3-(6-oxa-2-azaspiro[3.5]nonan-2-yl)prop-1-ynyl]-4-pyridyl]-3,8-diazabicyclo[3.2.1]octan-3-yl]pyridazin-3-yl]phenol]
- DC50 [1]: < 10 nM
- Dmax [1]: 30 to 70%
- DC50 [2]: < 10 nM
- BRM IF Degradation Sinf (%) [2]: E (E indicates −30%-−70%)

- DC50 [1]: 10 to 100 nM
- Dmax [1]: 30 to 70%
- DC50 [2]: < 10 nM
- BRM IF Degradation Sinf (%) [2]: E (E indicates −30%-−70%)
SMILES: Nc1nnc(-c2ccccc2O)cc1N1CC2(CN(c3ccnc(C#CCN4CCCCCC4)c3)C2)C1 [Compound 251, 2-[6-amino-5-[6-[2-[3-(azepan-1-yl)prop-1-ynyl]-4-pyridyl]-2,6-diazaspiro[3.3]heptan-2-yl]pyridazin-3-yl]phenol]

SMILES: Nc1nnc(-c2ccccc2O)cc1N1CC2CCC(C1)N2c1ccnc(C#CCN2CC(CO)(c3ccccc3)C2)c1 [Compound 179, 2-[6-amino-5-[8-[2-[3-[3-(hydroxymethyl)-3-phenyl-azetidin-1-yl]prop-1-ynyl]-4-pyridyl]-3,8-diazabicyclo[3.2.1]octan-3-yl]pyridazin-3-yl]phenol]
- DC50 [1]: 10 to 100 nM
- Dmax [1]: 30 to 70%
- DC50 [2]: 10 to 100 nM
- BRM IF Degradation Sinf (%) [2]: F (F indicates −71%-−120%)

SMILES: Nc1nnc(-c2ccccc2O)cc1N1CC2CCC(C1)N2c1ccnc(C#CCN2CC3CC(CO)CC32)c1 (centres unmarked) [Compound 217, 2-[6-amino-5-[8-[2-[3-[3-(hydroxymethyl)-6-azabicyclo[3.2.0]heptan-6-yl]prop-1-ynyl]-4-pyridyl]-3,8-diazabicyclo[3.2.1]octan-3-yl]pyridazin-3-yl]phenol]
- DC50 [1]: 10 to 100 nM
- Dmax [1]: 30 to 70%
- DC50 [2]: 10 to 100 nM
- BRM IF Degradation Sinf (%) [2]: E (E indicates −30%-−70%)

SMILES: Nc1nnc(-c2ccccc2O)cc1N1CC2CCC(C1)N2c1ccnc(C#CCN2CCC(F)C2)c1 (centres unmarked) [Compound 133, 2-[6-amino-5-[8-[2-[3-(3-fluoropyrrolidin-1-yl)prop-1-ynyl]-4-pyridyl]-3,8-diazabicyclo[3.2.1]octan-3-yl]pyridazin-3-yl]phenol]
- DC50 [1]: < 10 nM
- Dmax [1]: 0 to 30%
- DC50 [2]: < 10 nM
- BRM IF Degradation Sinf (%) [2]: E (E indicates −30%-−70%)

SMILES: CCOC1CN(CC#Cc2cc(N3C4CCC3CN(c3cc(-c5ccccc5O)nnc3N)C4)ccn2)C1 [Compound 224, 2-[6-amino-5-[8-[2-[3-(3-ethoxyazetidin-1-yl)prop-1-ynyl]-4-pyridyl]-3,8-diazabicyclo[3.2.1]octan-3-yl]pyridazin-3-yl]phenol]
- DC50 [1]: < 10 nM
- Dmax [1]: 30 to 70%
- DC50 [2]: < 10 nM
- BRM IF Degradation Sinf (%) [2]: E (E indicates −30%-−70%)

SMILES: C[C@H]1CCN(CC#Cc2cc(N3C4CCC3CN(c3cc(-c5ccccc5O)nnc3N)C4)ccn2)C1 [Compound 75, 2-(6-amino-5-(8-(2-(3-((S)-3-methylpyrrolidin-1-yl)prop-1-yn-1-yl)pyridin-4-yl)-3,8-diazabicyclo[3.2.1]octan-3-yl)pyridazin-3-yl)phenol]
- DC50 [1]: < 10 nM
- Dmax [1]: 30 to 70%
- DC50 [2]: < 10 nM
- BRM IF Degradation Sinf (%) [2]: E (E indicates −30%-−70%)

SMILES: Nc1nnc(-c2ccccc2O)cc1N1CC2CCC(C1)N2c1ccnc(C#CCN2CCC3(CCCC3)C2)c1 [Compound 127, 2-[6-amino-5-[8-[2-[3-(2-azaspiro[4.4]nonan-2-yl)prop-1-ynyl]-4-pyridyl]-3,8-diazabicyclo[3.2.1]octan-3-yl]pyridazin-3-yl]phenol]
- DC50 [1]: < 10 nM
- Dmax [1]: 30 to 70%
- DC50 [2]: < 10 nM
- BRM IF Degradation Sinf (%) [2]: E (E indicates −30%-−70%)

SMILES: Nc1nnc(-c2ccccc2O)cc1N1CC2CCC(C1)N2c1ccnc(C#CCN2CCCOCC23CC3)c1 [Compound 110, 2-[6-amino-5-[8-[2-[3-(8-oxa-4-azaspiro[2.6]nonan-4-yl)prop-1-ynyl]-4-pyridyl]-3,8-diazabicyclo[3.2.1]octan-3-yl]pyridazin-3-yl]phenol]
- DC50 [1]: > 100 nM
- DC50 [2]: < 10 nM
- BRM IF Degradation Sinf (%) [2]: E (E indicates −30%-−70%)

SMILES: Nc1nnc(-c2ccccc2O)cc1N1CC2CCC(C1)N2c1ccnc(C#CCN2CC3CC2CO3)c1 (centres unmarked) [Compound 132, 2-[6-amino-5-[8-[2-[3-(2-oxa-5-azabicyclo[2.2.1]heptan-5-yl)prop-1-ynyl]-4-pyridyl]-3,8-diazabicyclo[3.2.1]octan-3-yl]pyridazin-3-yl]phenol]
- DC50 [1]: < 10 nM
- Dmax [1]: 30 to 70%
- DC50 [2]: < 10 nM
- BRM IF Degradation Sinf (%) [2]: E (E indicates −30%-−70%)

SMILES: Nc1nnc(-c2ccccc2O)cc1N1CC2CCC(C1)N2c1ccnc(C#CCN2CCOC3(CCC3)C2)c1 [Compound 77]
- DC50 [1]: > 100 nM
- DC50 [2]: 10 to 100 nM
- BRM IF Degradation Sinf (%) [2]: E (E indicates −30%-−70%)

SMILES: CC1CCCCCN1CC#Cc1cc(N2C3CCC2CN(c2cc(-c4ccccc4O)nnc2N)C3)ccn1 (centres unmarked) [Compound 201, 2-[6-amino-5-[8-[2-[3-(2-methylazepan-1-yl)prop-1-ynyl]-4-pyridyl]-3,8-diazabicyclo[3.2.1]octan-3-yl]pyridazin-3-yl]phenol]
- DC50 [1]: < 10 nM
- Dmax [1]: 30 to 70%
- DC50 [2]: < 10 nM
- BRM IF Degradation Sinf (%) [2]: F (F indicates −71%-−120%)

SMILES: COC1(C)CN(CC#Cc2cc(N3C4CCC3CN(c3cc(-c5ccccc5O)nnc3N)C4)ccn2)C1 [Compound 169, 2-[6-amino-5-[8-[2-[3-(3-methoxy-3-methyl-azetidin-1-yl)prop-1-ynyl]-4-pyridyl]-3,8-diazabicyclo[3.2.1]octan-3-yl]pyridazin-3-yl]phenol]
- DC50 [1]: 10 to 100 nM
- Dmax [1]: 30 to 70%
- DC50 [2]: < 10 nM
- BRM IF Degradation Sinf (%) [2]: E (E indicates −30%-−70%)

SMILES: Nc1nnc(-c2ccccc2O)cc1N1CC2CCC(C1)N2c1ccnc(C#CCN2CC3CC2C3)c1 [Compound 86, 2-[6-amino-5-[8-[2-[3-(2-azabicyclo[2.1.1]hexan-2-yl)prop-1-ynyl]-4-pyridyl]-3,8-diazabicyclo[3.2.1]octan-3-yl]pyridazin-3-yl]phenol]
- DC50 [1]: < 10 nM
- Dmax [1]: 30 to 70%
- DC50 [2]: < 10 nM
- BRM IF Degradation Sinf (%) [2]: E (E indicates −30%-−70%)

SMILES: CC1CCN(CC#Cc2cc(N3C4CCC3CN(c3cc(-c5ccccc5O)nnc3N)C4)ccn2)CCC1O (centres unmarked) [Compound 190, 1-[3-[4-[3-[3-amino-6-(2-hydroxyphenyl)pyridazin-4-yl]-3,8-diazabicyclo[3.2.1]octan-8-yl]-2-pyridyl]prop-2-ynyl]-5-methyl-azepan-4-ol]
- DC50 [1]: < 10 nM
- Dmax [1]: 30 to 70%
- DC50 [2]: < 10 nM
- BRM IF Degradation Sinf (%) [2]: F (F indicates −71%-−120%)

SMILES: Nc1nnc(-c2ccccc2O)cc1N1CC2CCC(C1)N2c1ccnc(C#CCN2CCOC3(CC3)C2)c1 [Compound 124, 2-[6-amino-5-[8-[2-[3-(4-oxa-7-azaspiro[2.5]octan-7-yl)prop-1-ynyl]-4-pyridyl]-3,8-diazabicyclo[3.2.1]octan-3-yl]pyridazin-3-yl]phenol]
- DC50 [1]: > 100 nM
- DC50 [2]: < 10 nM
- BRM IF Degradation Sinf (%) [2]: E (E indicates −30%-−70%)

SMILES: CC1(C)CCN1CC#Cc1cc(N2C3CCC2CN(c2cc(-c4ccccc4O)nnc2N)C3)ccn1 [Compound 187, 2-[6-amino-5-[8-[2-[3-(2,2-dimethylazetidin-1-yl)prop-1-ynyl]-4-pyridyl]-3,8-diazabicyclo[3.2.1]octan-3-yl]pyridazin-3-yl]phenol]
- DC50 [1]: < 10 nM
- Dmax [1]: 30 to 70%
- DC50 [2]: < 10 nM
- BRM IF Degradation Sinf (%) [2]: E (E indicates −30%-−70%)

SMILES: COCC1(O)CCCN(CC#Cc2cc(N3C4CCC3CN(c3cc(-c5ccccc5O)nnc3N)C4)ccn2)CC1 (centres unmarked) [Compound 207, 1-[3-[4-[3-[3-amino-6-(2-hydroxyphenyl)pyridazin-4-yl]-3,8-diazabicyclo[3.2.1]octan-8-yl]-2-pyridyl]prop-2-ynyl]-4-(methoxymethyl)azepan-4-ol]
- DC50 [1]: > 100 nM
- Dmax [1]: 71 to 120%
- DC50 [2]: 10 to 100 nM
- BRM IF Degradation Sinf (%) [2]: E (E indicates −30%-−70%)

SMILES: Nc1nnc(-c2ccccc2O)cc1N1CC2CCC(C1)N2c1ccnc(C#CCN2CCCCC2)c1 [Compound 166, 2-(6-amino-5-(8-(2-(3-(piperidin-1-yl)prop-1-yn-1-yl)pyridin-4-yl)-3,8-diazabicyclo[3.2.1]octan-3-yl)pyridazin-3-yl)phenol]
- DC50 [1]: > 100 nM
- DC50 [2]: < 10 nM
- BRM IF Degradation Sinf (%) [2]: E (E indicates −30%-−70%)

SMILES: Nc1nnc(-c2ccccc2O)cc1N1CC2CCC(C1)N2c1ccnc(C#CCN2CC3(COCCO3)C2)c1 [Compound 160, 2-[6-amino-5-[8-[2-[3-(5,8-dioxa-2-azaspiro[3.5]nonan-2-yl)prop-1-ynyl]-4-pyridyl]-3,8-diazabicyclo[3.2.1]octan-3-yl]pyridazin-3-yl]phenol]
- DC50 [1]: 10 to 100 nM
- Dmax [1]: 0 to 30%
- DC50 [2]: 10 to 100 nM
- BRM IF Degradation Sinf (%) [2]: E (E indicates −30%-−70%)
